Read-outs that look alike come from different tables or passages of the source.
How the values were obtained:
[1] = test system: housefly (Musca domestica) which is resistant to pyrethroid; assay type: in vivo; conditions: topical, 2 days later, average of 3
Source text: One half (0.5)μL of the following acetone dissolving solution wherein the concentration was adjusted to set forth a dosage given below, was applied to the back thoracic region of a housefly (Musca domestica) which is resistant to pyrethroid and the mortality was examined 2 days later.

[2] = test system: Formosan subterranean termites (Coptotermes formosanus); test: Soil tunneling test in glass tube with Formosan subterranean termites; assay type: in vivo; conditions: concentration of application 20 ppm, a week later, three repeats
Procedure: Three (3) cm of soil was packed into the central inner portion of a glass tube that has an inner diameter of 1.7 cm and is 15 cm long, and on one surface of the soil, 0.7 mL of each aqueous solution that has the examined compound formulated to a determined dilution (examined compound and applied concentration given in table 3). Subsequently, 4% agar was inserted onto both surfaces of the soil, 50 worker Formosan subterranean termites (Coptotermes formosanus) and 5 soldier Formosan subterranean termites were deposited into side of the inner part of the tube wherein no compound was applied, and the tunneled soil condition by the termites was examined a week later. The example was repeated thrice.
Within the results of table 3, A represents a condition wherein the termites tunneled through the surface of the soil of the treated side and the non-treated side, B represents a condition wherein the surface of the soil of the treated side was tunneled through and the agar was tunneled halfway, C represents a condition wherein the surface of the soil of the treated side was incompletely tunneled through and the agar had no visible tunneling.

Structure (SMILES)	mortality (%) ([1]; dosage 1.25 μg per insect)	mortality (%) ([1]; dosage 5 μg per insect)	mortality (%) ([1]; dosage 10 μg per insect)	mortality (%) ([1]; dosage 2.5 μg per insect)	mortality (%) ([1]; dosage 0.625 μg per insect)	results (tunneled soil condition by the termites) [2]
C/C(=N\C#N)N(C)Cc1ccc(Cl)nc1 [Compound A, (E)-N^1-[(6-chloro-3-pyridyl)methyl]-N^2-cyano-N^1-methylacetamidine]	15	15	5			
C#CCC1=C(C)C(OC(=O)C2C(C=C(C)C)C2(C)C)CC1=O (mixture of isomers) [Prallethrin, (S)-2-methyl-4-oxo-3-prop-2-ynylcyclopent-2-enyl (1R)-cis,trans-2,2-dimethyl-3-(2-methylprop-1-enyl)cyclopropanecarboxylate]	6.7	30		10		
CNC(=N[N+](=O)[O-])NCC1CCOC1 (stereo not shown) [Compound B, 1-(tetrahydrofuran-3-yl)methyl-3-methyl-2-nitroguanidine]	45				10	ACA
CN1COCN(Cc2cnc(Cl)s2)C1=N[N+](=O)[O-] [Compound D, 3-[(2-chloro-5-thiazolyl)methyl]-5-methyl-4-nitroiminotetrahydro-1,3,5-oxadiazine]						AAA
